# Read-outs that look alike come from different tables or passages of the source.
# Tests used:
# [1] = Human pharmacokinetics; conditions: in vivo
# Protocol: The pharmacokinetic parameters described herein include area under the plasma concentration-time curve (AUC0-t and AUC0-∞), maximum plasma concentration (Cmax), time of maximum plasma concentration (Tmax) and terminal elimination half-life (T1/2). The time of maximum concentration, Tmax, is determined as the time corresponding to Cmax. Area under the plasma concentration-time curve up to the time corresponding to the last measurable concentration (AUC0-t) is calculated by numerical integration using the linear trapezoidal rule as follows: […]
# [2] = Urinary excretion after oral 14C-milnacipran hydrochloride; type: in vivo, human
# Source text: Milnacipran and its metabolites are eliminated primarily by renal excretion. […] The l-milnacipran carbamoyl-O-glucuronide was the major metabolite excreted in urine and accounted for approximately 17% of the dose; approximately 2% of the dose was excreted in urine as d-milnacipran carbamoyl-O-glucuronide.
# [3] = test system: rats; conditions: rat, in vivo, 50 mg/kg/day
# [4] = test system: Cl^− channels; experiment: Ion channel affinity; type: binding
# [5] = parameters: species or system human; conditions: in vivo, po
# Source text: AUC0-∞ and T½ were similar in healthy subjects and subjects with mild and moderate hepatic impairment. […] Caution should be exercised in patients with severe hepatic impairment.
# [6] = target: neuronal serotonin reuptake (Homo sapiens, UniProt P31645); experiment: Serotonin uptake inhibition in vitro; type: biochemical; conditions: preclinical studies
# Sequence of neuronal serotonin reuptake (P31645 whole entry): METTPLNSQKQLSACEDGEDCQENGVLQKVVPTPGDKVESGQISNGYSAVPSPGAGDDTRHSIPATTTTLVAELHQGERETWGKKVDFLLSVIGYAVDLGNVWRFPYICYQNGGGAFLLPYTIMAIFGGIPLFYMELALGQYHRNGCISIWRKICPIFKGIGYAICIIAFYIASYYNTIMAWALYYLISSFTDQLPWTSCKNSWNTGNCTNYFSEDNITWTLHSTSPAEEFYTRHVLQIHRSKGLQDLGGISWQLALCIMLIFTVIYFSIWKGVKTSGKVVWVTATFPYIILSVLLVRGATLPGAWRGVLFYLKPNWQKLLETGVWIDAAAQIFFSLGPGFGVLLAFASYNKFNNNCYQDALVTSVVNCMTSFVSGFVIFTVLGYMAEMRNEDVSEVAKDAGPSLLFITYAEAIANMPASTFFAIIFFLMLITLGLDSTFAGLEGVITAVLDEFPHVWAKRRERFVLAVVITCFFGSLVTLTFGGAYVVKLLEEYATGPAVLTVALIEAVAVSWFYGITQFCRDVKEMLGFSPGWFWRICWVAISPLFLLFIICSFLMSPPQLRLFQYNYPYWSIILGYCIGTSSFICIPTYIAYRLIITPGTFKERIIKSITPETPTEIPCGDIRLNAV
# [7] = human, in vivo
# Source text: Dosage adjustment based on gender is not necessary.
# [8] = target: human monoamine oxidase MAO-A (Homo sapiens, UniProt P21397); experiment: Enzyme inhibition; type: biochemical
# Sequence of human monoamine oxidase MAO-A (P21397 whole entry): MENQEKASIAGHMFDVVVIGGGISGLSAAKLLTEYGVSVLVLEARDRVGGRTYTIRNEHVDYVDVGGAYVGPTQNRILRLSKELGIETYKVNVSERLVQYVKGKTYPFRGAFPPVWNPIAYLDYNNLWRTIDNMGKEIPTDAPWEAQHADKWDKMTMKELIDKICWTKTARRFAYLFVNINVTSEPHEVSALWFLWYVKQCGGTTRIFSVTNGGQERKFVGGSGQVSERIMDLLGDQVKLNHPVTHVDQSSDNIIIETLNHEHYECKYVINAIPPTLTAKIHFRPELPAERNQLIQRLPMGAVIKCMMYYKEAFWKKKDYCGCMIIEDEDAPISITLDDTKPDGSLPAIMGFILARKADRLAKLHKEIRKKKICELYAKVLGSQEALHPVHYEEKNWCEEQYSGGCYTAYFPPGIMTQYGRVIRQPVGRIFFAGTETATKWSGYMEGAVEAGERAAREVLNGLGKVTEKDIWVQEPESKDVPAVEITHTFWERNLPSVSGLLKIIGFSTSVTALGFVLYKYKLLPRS
# [9] = test system: α-adrenergic receptors; experiment: Receptor affinity in vitro; type: binding
# [10] = target: human monoamine oxidase MAO-B (Homo sapiens, UniProt P27338); experiment: Enzyme inhibition; type: biochemical
# Sequence of human monoamine oxidase MAO-B (P27338 whole entry): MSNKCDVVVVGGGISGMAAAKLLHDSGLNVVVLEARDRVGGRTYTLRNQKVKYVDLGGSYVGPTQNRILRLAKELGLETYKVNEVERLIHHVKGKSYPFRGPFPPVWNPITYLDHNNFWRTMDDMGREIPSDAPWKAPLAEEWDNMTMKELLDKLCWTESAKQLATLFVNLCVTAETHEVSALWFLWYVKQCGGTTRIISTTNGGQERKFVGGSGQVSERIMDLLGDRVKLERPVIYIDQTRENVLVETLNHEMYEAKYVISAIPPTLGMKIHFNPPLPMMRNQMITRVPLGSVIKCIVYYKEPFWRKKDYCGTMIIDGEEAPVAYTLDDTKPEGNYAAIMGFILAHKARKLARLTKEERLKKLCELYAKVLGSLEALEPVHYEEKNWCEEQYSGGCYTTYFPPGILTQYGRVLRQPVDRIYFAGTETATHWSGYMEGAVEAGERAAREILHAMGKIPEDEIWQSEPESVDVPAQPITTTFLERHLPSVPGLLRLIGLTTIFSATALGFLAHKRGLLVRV
# [11] = test system: dopamine (D1-5) receptors; experiment: Receptor affinity in vitro; type: binding
# [12] = test system: opiate receptors; experiment: Receptor affinity in vitro; type: binding
# [13] = Drug interaction studies in healthy adult subjects; type: in vivo, human; conditions: human, in vivo
# Protocol: The drug interaction studies described below were conducted in healthy adult subjects.
# [14] = test system: patients; experiment: Spontaneous / postmarketing reports; type: in vivo, human; conditions: in vivo
# Source text: However, because these adverse reactions were reported voluntarily from a population of uncertain size, it is not always possible to reliably estimate their frequency or establish a causal relationship to drug exposure.
# [15] = test system: rats; experiment: Reproductive toxicity in rats (dead fetuses in utero); type: in vivo, rat; conditions: 5 mg/kg/day (0.25 times the MRHD on a mg/m^2 basis)
# [16] = target: T1, uptake of dopamine (Homo sapiens, UniProt Q01959); conditions: cited from earlier work
# T1 sequence (Q01959 whole entry): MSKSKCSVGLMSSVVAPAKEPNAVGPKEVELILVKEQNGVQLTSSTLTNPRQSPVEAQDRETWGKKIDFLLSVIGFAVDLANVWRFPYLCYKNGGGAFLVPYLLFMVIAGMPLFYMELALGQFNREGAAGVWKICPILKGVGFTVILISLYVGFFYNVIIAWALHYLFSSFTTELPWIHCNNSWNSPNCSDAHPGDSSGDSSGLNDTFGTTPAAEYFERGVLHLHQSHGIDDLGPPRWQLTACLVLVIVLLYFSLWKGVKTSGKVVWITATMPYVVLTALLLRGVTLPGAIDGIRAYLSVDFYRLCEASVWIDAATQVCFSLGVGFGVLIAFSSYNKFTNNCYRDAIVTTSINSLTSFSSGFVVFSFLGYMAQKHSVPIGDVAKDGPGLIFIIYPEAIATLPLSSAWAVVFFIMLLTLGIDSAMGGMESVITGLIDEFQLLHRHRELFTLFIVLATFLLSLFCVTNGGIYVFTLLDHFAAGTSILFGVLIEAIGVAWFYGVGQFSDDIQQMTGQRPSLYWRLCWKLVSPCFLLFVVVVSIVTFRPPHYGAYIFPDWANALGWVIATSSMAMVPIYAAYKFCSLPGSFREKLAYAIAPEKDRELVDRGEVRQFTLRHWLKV
# [17] = test system: muscarinic (M1-5) receptors; experiment: Receptor affinity in vitro; type: binding
# [18] = test system: serotonergic (5-HT1-7) receptors; experiment: Receptor affinity in vitro; type: binding
# [19] = test system: L5178Y TK+/− mouse lymphoma; type: cell-based
# [20] = test system: rats; conditions: rat, in vivo, 15 mg/kg
# Source text: (§1) The clinical significance of the finding is not known.
# [21] = test system: primate; conditions: in vivo
# Source text: as §1
# [22] = test system: rats; experiment: Oral administration to rats during late gestation; type: in vivo
# Protocol: The no-effect dose for maternal and offspring toxicity was 2.5 mg/kg/day (approximately 0.1 times the MRHD on a mg/m^2 basis).
# [23] = test system: rat; conditions: in vivo
# [24] = test system: β-adrenergic receptors; experiment: Receptor affinity in vitro; type: binding
# [25] = test system: fibromyalgia patients; experiment: Placebo-controlled trials in fibromyalgia patients (safety); type: in vivo, human; conditions: human, in vivo
# Source text: The stated frequencies of adverse reactions represent the proportion of individuals who experienced, at least once, a treatment-emergent adverse reaction of the type listed. A reaction was considered treatment emergent if it occurred for the first time or worsened while receiving therapy following baseline evaluation.
# [26] = test system: γ-aminobutyric acid (GABA) receptors; experiment: Receptor affinity in vitro; type: binding
# [27] = test system: benzodiazepine receptors; experiment: Receptor affinity in vitro; type: binding
# [28] = target: T1, uptake of dopamine; experiment: Dopamine uptake; type: biochemical; conditions: preclinical studies
# [29] = target: acetylcholinesterase (Homo sapiens, UniProt P22303); experiment: Enzyme inhibition; type: biochemical
# Sequence of acetylcholinesterase (P22303 32-614, species assumed): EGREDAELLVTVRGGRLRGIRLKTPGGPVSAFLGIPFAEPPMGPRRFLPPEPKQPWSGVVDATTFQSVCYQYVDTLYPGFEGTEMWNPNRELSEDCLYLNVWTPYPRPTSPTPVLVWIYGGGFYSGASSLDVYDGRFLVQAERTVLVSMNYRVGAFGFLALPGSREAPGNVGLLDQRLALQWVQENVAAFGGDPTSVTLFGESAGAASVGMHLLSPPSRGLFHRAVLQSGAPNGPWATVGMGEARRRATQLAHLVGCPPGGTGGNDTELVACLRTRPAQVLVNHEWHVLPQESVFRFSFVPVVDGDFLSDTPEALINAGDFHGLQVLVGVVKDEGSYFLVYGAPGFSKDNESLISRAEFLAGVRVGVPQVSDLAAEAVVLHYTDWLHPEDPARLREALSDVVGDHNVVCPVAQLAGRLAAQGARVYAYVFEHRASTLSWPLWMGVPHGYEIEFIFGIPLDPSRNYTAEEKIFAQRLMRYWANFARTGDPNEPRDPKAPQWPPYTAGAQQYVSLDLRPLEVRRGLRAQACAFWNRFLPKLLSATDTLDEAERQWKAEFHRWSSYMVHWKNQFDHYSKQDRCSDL
# [30] = test system: Ca^++ channels; experiment: Ion channel affinity; type: binding
# [31] = test system: bacterial reverse mutation; experiment: In vitro bacterial reverse mutation assay (Ames test); type: cell-based
# [32] = test system: rabbits; experiment: Embryotoxicity/teratogenicity in rabbits, period of organogenesis; type: in vivo, rabbit; conditions: up to 60 mg/kg/day (6 times the MRHD)
# [33] = test system: histamine (H1-4) receptors; experiment: Receptor affinity in vitro; type: binding
# [34] = test system: Na^+ channels; experiment: Ion channel affinity; type: binding
# [35] = test system: K^+ channels; experiment: Ion channel affinity; type: binding
# [36] = test system: human lymphocytes; type: cell-based
# [37] = in vivo
# Source text: Milnacipran is not a controlled substance.
# These withdrawal symptoms can be severe. Thus, in certain embodiments, milnacipran hydrochloride should be tapered and not abruptly discontinued after extended use.
# [38] = test system: mouse; conditions: in vivo
# [39] = test system: mice; experiment: Embryotoxicity/teratogenicity in mice, period of organogenesis; type: in vivo, mouse; conditions: up to 125 mg/kg/day (3 times the MRHD)
# [40] = oral 14C-milnacipran hydrochloride
structure (smiles),measurement,setting,value
"CCN(CC)C(=O)[C@]1(c2ccccc2)C[C@@H]1CN.Cl [(1R,2S) enantiomer, (1R,2S)-2-aminomethyl-1-phenyl-N,N-diethylcyclopropanecarboxamide hydrochloride]",half-life,[1]; human,4 to 6 h
"CCN(CC)C(=O)[C@@]1(c2ccccc2)C[C@H]1CN.Cl [(1S,2R) enantiomer, (1S,2R)-2-aminomethyl-1-phenyl-N,N-diethylcyclopropanecarboxamide hydrochloride]",half-life,[1]; human,8 to 10 h
CCNC(=O)[C@]1(c2ccccc2)C[C@@H]1CN [N-desethyl milnacipran],dose excreted in urine as this species,[2]; [40],Approximately 8%
CCN(CC)C(=O)[C@]1(c2ccccc2)C[C@@H]1CNC(=O)O[C@@H]1O[C@H](C(=O)O)[C@@H](O)[C@H](O)[C@H]1O [d-milnacipran carbamoyl-O-glucuronide],dose excreted in urine as this species,[2]; [40],approximately 2%
CCN(CC)C(=O)[C@]1(c2ccccc2)C[C@@H]1CN [d-milnacipran],dose excreted in urine as this species,[2]; [40],31%
CCN(CC)C(=O)[C@@]1(c2ccccc2)C[C@H]1CNC(=O)O[C@@H]1O[C@H](C(=O)O)[C@@H](O)[C@H](O)[C@H]1O [l-milnacipran carbamoyl-O-glucuronide],dose excreted in urine as this species,[2]; [40],approximately 17%
CCN(CC)C(=O)[C@@]1(c2ccccc2)C[C@H]1CN [l-milnacipran],dose excreted in urine as this species,[2]; [40],24%
CCN(CC)C(=O)C1(c2ccccc2)CC1CN (stereo not shown) [milnacipran],tumor incidence,[3],statistically significant increase in the incidence of thyroid C-cell adenomas and combined adenomas and carcinomas in males
same,affinity,[4],no significant affinity
same,higher AUC0-∞ than healthy subjects,"[5]; human, 50 mg",31%
same,higher T½ than healthy subjects,"[5]; human, 50 mg",55%
same,T½ vs healthy subjects,[5],similar
same,inhibition of neuronal serotonin reuptake,[6],potent inhibitor
same,higher AUC,[7]; both,about 20%
same,higher Cmax,[7]; both,about 20%
same,higher AUC,[7],about 30%
same,higher Cmax,[7],about 30%
same,inhibition of activity,[8],does not inhibit
same,affinity,[9],no significant affinity
same,inhibition of activity,[10],does not inhibit
same,affinity,[11],no significant affinity
same,affinity,[12],no significant affinity
same,dose excreted unchanged in urine,[1]; human,55%
same,half-life,[1]; human,6 to 8 h
same,time to steady-state levels,[1]; human,36 to 48 h
same,Vd,"[1]; human, iv",~400 L
same,bioavailability,"[1]; human, po",85 to 90%
same,exposure vs dose,[1],increased proportionally
same,adverse events after switching from clomipramine,[13],"an increase in adverse events (e.g., euphoria and postural hypotension)"
same,liver findings,[14],"cases of increased liver enzymes and reports of severe liver injury, including fulminant hepatitis"
same,incidence of dead fetuses in utero,[15],increased the incidence of dead fetuses in utero
same,effect on uptake of dopamine,[16],does not affect
same,affinity,[17],no significant affinity
same,affinity,[18],no significant affinity
same,mutagenicity,[19],not mutagenic
same,hepatic findings,[20],increased incidences of centrilobular vacuolation of the liver in male rats and eosinophilic foci in male and female rats
same,keratitis of the eye,[20],increased incidence of keratitis of the eye
same,keratitis of the eye,[21],did not show this response
same,pup body weight and viability on postpartum day 4,"[22]; rat, in vivo, po, 5 mg/kg/day",decrease in pup body weight and viability
same,no-effect dose for maternal and offspring toxicity,[22]; rats (approximately 0.1 times the MRHD),2.5 mg/kg/day
same,keratitis of the eye,[23],did not show this response
same,affinity,[24],no significant affinity
same,withdrawal due to constipation,[25],1%
same,withdrawal due to dizziness,[25],1%
same,withdrawal due to headache,[25],2%
same,withdrawal due to heart rate increased,[25],1%
same,withdrawal due to hyperhidrosis,[25],1%
same,withdrawal due to nausea,[25],6%
same,withdrawal due to palpitations,[25],3%
same,withdrawal due to vomiting,[25],1%
same,withdrawal symptoms following discontinuation,[25],Withdrawal symptoms have been observed
same,dose excreted in urine as this species,"[2]; human, in vivo, po",approximately 55%
same,affinity,[26],no significant affinity
same,affinity,[27],no significant affinity
same,effect on uptake of dopamine or other neurotransmitters,[28],without directly affecting
same,inhibition of activity,[29],does not inhibit
same,affinity,[30],no significant affinity
same,mutagenicity,[31],not mutagenic
same,embryotoxicity or teratogenicity,[32],did not result in embryotoxicity or teratogenicity
same,affinity,[33],no significant affinity
same,affinity,[34],no significant affinity
same,affinity,[35],no significant affinity
same,clastogenicity,[36],not clastogenic
same,behavioral signs indicative of abuse potential,[37],did not produce behavioral signs indicative of abuse potential
same,physical dependence,[37],produces physical dependence
same,clastogenicity,[38],not clastogenic
same,embryotoxicity or teratogenicity,[39],did not result in embryotoxicity or teratogenicity
